# Laboratory results taken from patent publication US8759366B2, “Aminopyrimidines as SYK inhibitors” (Merck Sharp & Dohme Corp., priority 2009, dated 2014).
# Target: rhSYK (Homo sapiens (Human), UniProt P43405)
# Conditions: read-out: rhSYK activity
row,Compound,IC50
1,"Cc1cc(Nc2nccc(C(F)(F)F)n2)cc(-c2cnc(C3(NS(N)(=O)=O)COC3)s2)c1 [Example 63, N-{3-[5-(3-methyl-5-{[4-(trifluoromethyl)pyrimidin-2-yl]amino}phenyl)-1,3-thiazol-2-yl]oxetan-3-yl}sulfuric diamide]",< 100 nM
2,"Cc1cc(Nc2nccc(C(F)(F)F)n2)cc(-c2cnc(C3(NC(N)=O)CCC3)s2)c1 [Example 64, 1-{1-[5-(3-methyl-5-{[4-(trifluoromethyl)pyrimidin-2-yl]amino}phenyl)-1,3-thiazol-2-yl]cyclobutyl}urea]",< 100 nM
3,"Cc1cc(Nc2nccc(C(F)(F)F)n2)cc(-c2cnc(C(NC(=O)NC(N)=O)(C3CC3)C3CC3)s2)c1 [Example 65, N-{dicyclopropyl[5-(3-methyl-5-{[4-(trifluoromethyl)pyrimidin-2-yl]amino}phenyl)-1,3-thiazol-2-yl]methyl}dicarbonimidic diamide]",< 100 nM
4,"Cc1cc(Nc2nccc(C(=O)N3CCNCC3)n2)cc(-c2cnc(C(C)(O)C(F)(F)F)s2)c1 (stereo not shown) [Example 69, [2-({3-methyl-5-[2-(1,1,1-trifluoro-2-hydroxypropan-2-yl)-1,3-thiazol-5-yl]phenyl}amino)-pyrimidin-4-yl](piperazin-1-yl)methanone]",< 100 nM
5,"CC(C)(c1ncc(-c2cc(Nc3nccc(C(F)(F)F)n3)cc([N+](=O)[O-])c2)s1)S(N)(=O)=O [Example 70, 2-[5-(3-nitro-5-{[4-(trifluoromethyl)pyrimidin-2-yl]amino}phenyl)-1,3-thiazol-2-yl]propane-2-sulfonamide]",100 to 1000 nM
6,"CC(C)(c1ncc(-c2cc(N)cc(Nc3nccc(C(F)(F)F)n3)c2)s1)S(N)(=O)=O [Example 71, 2-[5-(3-amino-5-{[4-(trifluoromethyl)pyrimidin-2-yl]amino}phenyl)-1,3-thiazol-2-yl]propane-2-sulfonamide]",< 100 nM
7,"Cc1cc(Nc2nccc(C(F)(F)F)n2)cc(-c2cnc(C(C)(C)S(C)(=O)=O)s2)c1 [Example 73, N-(3-methyl-5-{2-[2-(methylsulfonyl)propan-2-yl]-1,3-thiazol-5-yl}phenyl)-4-(trifluoromethyl)pyrimidin-2-amine]",< 100 nM
8,"CC(=O)NS(=O)(=O)C1(c2ncc(-c3cc(C)cc(Nc4nccc(C(F)(F)F)n4)c3)s2)CCC1 [Example 74, N-({1-[5-(3-methyl-5-{[4-(trifluoromethyl)pyrimidin-2-yl]amino}phenyl)-1,3-thiazol-2-yl]-cyclobutyl}sulfonyl)acetamide]",< 100 nM
9,"Cc1cc(Nc2nccc(C(F)(F)F)n2)cc(-c2cnc(CS(N)(=O)=O)s2)c1 [Example 75, 1-[5-(3-methyl-5-{[4-(trifluoromethyl)pyrimidin-2-yl]amino}phenyl)-1,3-thiazol-2-yl]methanesulfonamide]",< 100 nM

# The remaining lines, values ahead:
row,IC50,Compound
1,< 100 nM,"Cc1cc(Nc2nccc(C(F)(F)F)n2)cc(-c2cnc(C(NC(=O)C3(C(N)=O)CC3)(C3CC3)C3CC3)s2)c1 [Example 67, N-{dicyclopropyl[5-(3-methyl-5-{[4-(trifluoromethyl)pyrimidin-2-yl]amino}phenyl)-1,3-thiazol-2-yl]methyl}cyclopropane-1,1-dicarboxamide]"
2,1000 to 10000 nM,"Cc1cc(Nc2nccc(C(=O)O)n2)cc(-c2cnc(C(C)(O)C(F)(F)F)s2)c1 (stereo not shown) [Example 68, 2-({3-methyl-5-[2-(1,1,1-trifluoro-2-hydroxypropan-2-yl)-1,3-thiazol-5-yl]phenyl}amino)-pyrimidine-4-carboxylic acid]"
3,< 100 nM,"CC(=O)Nc1cc(Nc2nccc(C(F)(F)F)n2)cc(-c2cnc(C(C)(C)S(N)(=O)=O)s2)c1 [Example 72, N-(3-[2-(2-sulfamoylpropan-2-yl)-1,3-thiazol-5-yl]-5-{[4-(trifluoromethyl)pyrimidin-2-yl]amino}phenyl)acetamide]"
4,< 100 nM,"COC(=O)[C@H](C)Cc1ncc(-c2cc(C)cc(Nc3nccc(C(F)(F)F)n3)c2)s1 [Example 76, Methyl (2R)-2-methyl-3-[5-(3-methyl-5-{[4-(trifluoromethyl)pyrimidin-2-yl]amino}phenyl)-1,3-thiazol-2-yl]propanoate]"
